Test results from US4889851A, “Benzothiadiazine compounds, and pharmaceutical composition comprising the same” (Fujisawa Pharmaceutical Co, Ltd., priority 1986, dated 1989).

System: Neonatal calvaria (bone resorption)
Assay: Inhibition of hPTH-induced bone resorption in cultured neonatal rat calvaria (calcium accumulation in medium)
Format: cell-based, rat (Wistar)
Settings: Test Compound 1×10^-5 M with hPTH(1-34) 1×10^-8 M; calvaria halves cultured 6 days at 37° C.; total calcium in medium by OCPC method
Method: Neonatal calvaria were dissected aseptically from 1-2 day old rat (Wistar), washed in Dulbecco's modified eagle's medium and divided along the sagittal suture. The calvaria halves were pooled and randomized in the different groups. The calvaria halves were cultured separately as free-floating bones in multi-well dishes containing a 2 ml of Dubecco's modified eagle's medium, with 10% heat-inactivated (56° C. for 1 hr) fetal calf serum. Treatment of hPTH(1-34)(1×10 ^-8 M) and the Test Compound (1×10 ^-5 M) was begun at zero time. All incubations were performed at 37° C., under an atmosphere of 95% air and 5% CO2 for 6 days. Bone resorption was determined by measuring the accumulation of calcium in the medium at 6 days. The concentration of total calcium in culture medium was measured by OCPC method with a spectrophotometer (Hitachi model U-3200, Tokyo, Japan).
As comparative data, similar tests were conducted using culture medium with hPTH (1×10^-8 M)only, and culture medium without both hPTH and Test Compound.
Test results were represented in terms of percentage of inhibition calculated by the following formula: [formula] CD the concentration of total calcium in culture medium treated with both hPTH and Test Compound
CO the concentration of total calcium in control culture medium without both hPTH and Test Compound
CP the concentration of total calcium in culture medium treated with hPTH only

First: CC(C)Oc1ccc2c(c1)N(C)C(=O)N(c1ccc(Cl)cc1)S2(=O)=O [(a), 2-(4-Chlorophenyl)-6-isopropoxy-4-methyl-2H-1,2,4-benzothiadiazine-3(4H)-one 1,1-dioxide]
Second: CC(C)COc1ccc2c(c1)N(C)C(=O)N(c1ccc(Cl)cc1)S2(=O)=O [(b), 2-(4-Chlorophenyl)-4-methyl-6-(2-methylpropoxy)-2H-1,2,4-benzothiadiazine-3(4H)-one 1,1-dioxide]
The “Inhibition (%)” value of the first is higher: 79.7% for the first, 56.1% for the second.

Going from `CN1C(=O)N(c2ccc(Cl)cc2)S(=O)(=O)c2ccc(OCC3CCCCC3)cc21` [(c), 2-(4-Chlorophenyl)-4-methyl-6-cyclohexylmethoxy-2H -1,2,4-benzothiadiazine-3(4H)-one 1,1-dioxide] to `CC(Oc1ccc2c(c1)N(C)C(=O)N(c1ccc(Cl)cc1)S2(=O)=O)C(=O)O` (stereo not drawn) [(e), 2-(4-Chlorophenyl)-6-(l-carboxyethoxy)-4-methyl-2H-1,2,4-benzothiadiazine-3(4H)-one 1,1-dioxide], the “Inhibition (%)” value rises from 62.5% to 67.9%.

First: CC(C)Oc1ccc2c(c1)N(C)C(=O)N(c1ccc(C(F)(F)F)cc1)S2(=O)=O [(d), 2-(4-Trifluoromethylphenyl)-4-methyl-6-isopropoxy-2H-1,2,4-benzothiadiazine-3(4H)-one 1,1-dioxide]
Second: C[C@@H](Oc1ccc2c(c1)N(C)C(=O)N(c1ccc(Cl)cc1)S2(=O)=O)C(=O)O [(f), (1R)-(+)-2-(4-Chlorophenyl)-6-(l-carboxyethoxy)-4-methyl-2H-1,2,4-benzothiadiazine-3(4H)-one 1,1-dioxide]
The “Inhibition (%)” value of the first is higher: 52.9% for the first, 50.2% for the second.
